Measurements reported in patent publication US7056947B2, “Aza-peptide epoxides” (Georgia Tech Research Corp., priority 2002, dated 2006).

Assays:
Type in all cases: biochemical
caspase-1 = biological target: T1, caspase-1 (Homo sapiens, UniProt P29466, D381E); test: Caspase-1 progress curve assay; conditions: D381E variant, substrate Ac-YVAD-AMC, 30° C.
T1 construct: His tag (N); made in house; host or cells: E. coli
T1 sequence (P29466 120-297 limits assumed): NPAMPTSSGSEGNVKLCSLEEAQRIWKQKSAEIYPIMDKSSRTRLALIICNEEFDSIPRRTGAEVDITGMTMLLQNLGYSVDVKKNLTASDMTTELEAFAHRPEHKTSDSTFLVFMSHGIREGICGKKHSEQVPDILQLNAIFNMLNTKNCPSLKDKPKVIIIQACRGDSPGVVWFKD
T1 sequence (P29466 317-404 D381E limits assumed): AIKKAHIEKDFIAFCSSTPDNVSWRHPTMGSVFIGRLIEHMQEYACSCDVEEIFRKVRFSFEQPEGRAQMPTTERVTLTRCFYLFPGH
Procedure, shortened: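 Autolysis-resistant D381E caspase-1 (E. coli, N-His tag), about 2 nM, added with 15 μM Ac-YVAD-AMC in HEPES/glycerol/EDTA buffer with 5 mM DTT to prewarmed compound at 30 °C. AMC fluorescence followed 900 s, triplicate curves fit to irreversible inactivation; kon (M^−1s^−1) from regression slope.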

caspase-6 = biological target: T2, caspase-6 (Homo sapiens, UniProt P55212); test: Caspase-6 progress curve assay; conditions: Table V, substrate Z-DEVD-AFC
T2 construct: made in house; host or cells: E. coli
T2 sequence (P55212 24-179 limits assumed): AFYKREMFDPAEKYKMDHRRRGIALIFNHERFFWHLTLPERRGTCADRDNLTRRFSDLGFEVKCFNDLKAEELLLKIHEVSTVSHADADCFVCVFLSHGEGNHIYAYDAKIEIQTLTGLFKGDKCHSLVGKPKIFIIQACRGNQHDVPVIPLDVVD
T2 sequence (P55212 194-293 limits assumed): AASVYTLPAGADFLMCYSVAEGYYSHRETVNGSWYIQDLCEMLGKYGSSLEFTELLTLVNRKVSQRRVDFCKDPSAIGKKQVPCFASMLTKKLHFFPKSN
Procedure: Caspase-3, -6, and -8. Caspase-3, -6 and -8 were expressed in E. coli and purified according to methods previously described by Stennicke and Salvesen. Assays using the fluorogenic substrate Z-DEVD-AFC (λex=400 nm, λem=505 nm) were carried out on a Molecular Devices fMax fluorescence microplate reader. Inhibition rates and equilibria were determined by the progress curve method. The standard 100 μL reaction was started by adding enzyme to a mixture of substrate (final concentration of Z-DEVD-AFC 100 μM) and various amounts of inhibitor in buffer (50 mM Hepes, 100 mM NaCl, 0.1% (w/v) CHAPS, sucrose 10% (w/v), and 10 mM DTT, at pH 7.4). The caspases were pre-activated for 10 min at 37° C. in the presence of 10 mM DTT.

caspase-3 = biological target: T3, caspase-3 (Homo sapiens, UniProt P42574); test: Caspase-3 progress curve assay; conditions: substrate Z-DEVD-AFC; NI = no inhibition
T3 construct: made in house; host or cells: E. coli
T3 sequence (P42574 29-175 limits assumed): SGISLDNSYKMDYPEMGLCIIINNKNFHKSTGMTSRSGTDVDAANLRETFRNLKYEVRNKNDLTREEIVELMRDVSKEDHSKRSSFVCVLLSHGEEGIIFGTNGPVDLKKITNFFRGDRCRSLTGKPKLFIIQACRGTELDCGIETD
T3 sequence (P42574 176-277 limits assumed): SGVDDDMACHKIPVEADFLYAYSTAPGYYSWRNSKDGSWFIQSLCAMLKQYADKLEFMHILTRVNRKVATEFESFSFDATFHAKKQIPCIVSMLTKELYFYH
Procedure, shortened: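 E. coli-expressed caspases, pre-activated 10 min at 37° C with 10 mM DTT, were added to 100 μM Z-DEVD-AFC plus inhibitor in 50 mM Hepes, 100 mM NaCl, 0.1% CHAPS, 10% sucrose, 10 mM DTT, pH 7.4. AFC fluorescence (ex 400/em 505 nm) was followed; inhibition rates and equilibria came from progress curves.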

papain = biological target: T4, papain (Carica papaya, UniProt P00784); test: Inhibition of papain, incubation method; conditions: second-order rate constant, NI = no inhibition
T4 sequence (P00784 134-345): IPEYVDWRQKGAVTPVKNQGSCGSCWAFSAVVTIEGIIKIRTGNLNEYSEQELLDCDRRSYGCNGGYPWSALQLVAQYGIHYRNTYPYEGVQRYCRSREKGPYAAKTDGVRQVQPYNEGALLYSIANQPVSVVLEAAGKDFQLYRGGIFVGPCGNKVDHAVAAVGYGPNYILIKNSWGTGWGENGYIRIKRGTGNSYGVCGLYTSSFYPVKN
Procedure, shortened: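 Papain (~0.29 mg/mL) incubated with inhibitor in 50 mM Hepes pH 7.5, 2.5 mM DTT, 2.5 mM EDTA; residual activity read on Z-Phe-Arg-pNA (53.7 μM) by p-nitroanilide release at 405 nm. Pseudo-first-order inactivation constants from ln vt/vo versus time.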

[1] = biological target: dipeptidyl peptidase I (DPPI, cathepsin C) (Homo sapiens, UniProt P53634); test: Inhibition of DPPI
cathepsin B = cathepsin B (Homo sapiens, UniProt P07858); test: Inhibition of cathepsin B, incubation method; conditions: second-order rate constant, NI = no inhibition
Excerpt: The release of 7-amino-4-methylcoumarin was monitored (λex=360 nm, λem=465 nm) using a Tecan Spectra Fluor microplate reader. Pseudo first-order inactivation rate constants were obtained from plots of In vt/vo versus time.

Chain of dipeptidyl peptidase I (DPPI, cathepsin C) (P53634 25-463, species assumed): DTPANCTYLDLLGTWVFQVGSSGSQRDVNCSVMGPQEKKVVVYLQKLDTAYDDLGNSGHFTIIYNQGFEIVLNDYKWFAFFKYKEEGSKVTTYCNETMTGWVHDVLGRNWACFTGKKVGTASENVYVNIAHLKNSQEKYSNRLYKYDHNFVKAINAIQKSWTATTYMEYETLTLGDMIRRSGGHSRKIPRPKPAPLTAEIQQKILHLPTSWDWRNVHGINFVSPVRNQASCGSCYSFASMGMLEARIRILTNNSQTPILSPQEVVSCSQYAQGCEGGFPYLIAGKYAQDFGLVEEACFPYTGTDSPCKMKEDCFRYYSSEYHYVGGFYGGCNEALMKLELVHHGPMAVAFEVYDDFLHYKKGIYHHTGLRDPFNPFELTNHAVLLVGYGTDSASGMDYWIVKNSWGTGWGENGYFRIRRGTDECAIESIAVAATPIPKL

Compound | k2 caspase-6 (caspase-6) | k2 caspase-3 (caspase-3) | kobs/[I] DPPI [1] | further results
CCCCN(CCCC)C(=O)[C@H]1O[C@@H]1C(=O)N(CC(=O)O)NC(=O)[C@H](C)NC(=O)[C@@H](NC(=O)CCc1ccccc1)C(C)C [10-129, (2S,3S)-2-(Dibutylcarbamoyl)-3-(N^2-(3-phenylpropanoylvalylalanyl)-N^1-carboxymethylhydrazinocarbonyl)oxirane] | 53 ± 9 M⁻¹ s⁻¹ | 520 ± 10 M⁻¹ s⁻¹ | – | k2 caspase-1 (caspase-1): 26150 ± 5460 M⁻¹ s⁻¹
CCCC[C@H](NC(=O)OC(C)(C)C)C(=O)NN(CCc1ccccc1)C(=O)[C@@H]1O[C@H]1C(=O)OCC (relative stereo) [Boc-Nle-AHph-trans-EP-COOEt, trans-3-(N^2-(N-tert-Butoxycarbonylnorleucyl)-N^1-phenylethylhydrazinocarbonyl)oxirane-2-carboxylic Acid Ethyl Ester] | – | – | – | kinact/KI (papain; pH 7.5, read-out: kobs/[I] papain): 1.6 M⁻¹ s⁻¹; kinact/KI ([1]; read-out: kobs/[I] DPPI): 0.7 M⁻¹ s⁻¹; kinact/KI (cathepsin B; pH 6, read-out: kobs/[I] cathepsin B): 1.3 M⁻¹ s⁻¹
CC[C@H](C)[C@H](NC(=O)OCc1ccccc1)C(=O)N[C@@H](CCC(=O)O)C(=O)N[C@H](C(=O)NN(CC(=O)O)C(=O)[C@H]1O[C@@H]1C(=O)N(Cc1ccccc1)Cc1ccccc1)[C@@H](C)O [11-11, (2S,3S)-2-(Dibenzylcarbamoyl)-3-(N^2-(N-benzyloxycarbonylisoleucylglutamylthreonyl)-N^1-carboxymethylhydrazinocarbonyl)oxirane] | 32000 ± 1680 M⁻¹ s⁻¹ | 3550 M⁻¹ s⁻¹ | – | –
CC(C)[C@H](NC(=O)CCc1ccccc1)C(=O)N[C@@H](C)C(=O)NN(CC(=O)O)C(=O)[C@H]1O[C@@H]1C(=O)N(Cc1ccccc1)Cc1ccccc1 [10-127, (2S,3S)-2-(Dibenzylcarbamoyl)-3-(N^2-(3-phenylpropanoylvalylalanyl)-N^1-carboxymethylhydrazinocarbonyl)oxirane] | 145 ± 1 M⁻¹ s⁻¹ | 830 ± 40 M⁻¹ s⁻¹ | – | k2 caspase-1 (caspase-1): 101140 ± 9547 M⁻¹ s⁻¹
CC(C)C[C@H](NC(=O)OCc1ccccc1)C(=O)N[C@@H](CCC(=O)O)C(=O)N[C@H](C(=O)NN(CC(=O)O)C(=O)[C@H]1O[C@@H]1C(=O)N(C)Cc1ccccc1)[C@@H](C)O [11-16, (2S,3S)-2-(N-Methyl-N-benzylcarbamoyl)-3-(N^2-(N-benzyloxycarbonylleucylglutamylthreonyl)-N^1-carboxymethylhydrazinocarbonyl)oxirane] | 9680 ± 875 M⁻¹ s⁻¹ | 2640 ± 100 M⁻¹ s⁻¹ | – | –
trans-3-(N^2-Norvalyl)-N^1-phenylethylhydrazinocarbonyl)-1-(2-phenylethyl)oxirane Trifluoroacetate Salt [Nva-AHph-trans-EP-CH2CH2Ph.TFA] | – | – | 0.1 M⁻¹ s⁻¹ | –
CC(C)C[C@H](NC(=O)OCc1ccccc1)C(=O)N[C@@H](CCC(=O)O)C(=O)N[C@H](C(=O)NN(CC(=O)O)C(=O)[C@H]1O[C@@H]1C(=O)N(Cc1ccccc1)Cc1ccccc1)[C@@H](C)O [11-4, (2S,3S)-2-(Dibenzylcarbamoyl)-3-(N^2-(N-benzyloxycarbonylleucylglutamylthreonyl)-N^1-carboxymethylhydrazinocarbonyl)oxirane] | 13840 ± 270 M⁻¹ s⁻¹ | 2750 ± 205 M⁻¹ s⁻¹ | – | –
CCCC(N)C(=O)NN(CCc1ccccc1)C(=O)C1OC1C(=O)OCC.O=C(O)C(F)(F)F (stereo not drawn) [Nva-AHph-trans-EP-COOEt.TFA] | – | – | 3.2 M⁻¹ s⁻¹ | –
CC[C@H](C)[C@H](NC(=O)OCc1ccccc1)C(=O)N[C@@H](CCC(=O)O)C(=O)N[C@H](C(=O)NN(CC(=O)O)C(=O)[C@H]1O[C@@H]1C(=O)N(C)Cc1ccccc1)[C@@H](C)O [11-18, (2S,3S)-2-(N-Methyl-N-benzylcarbamoyl)-3-(N^2-(N-benzyloxycarbonylisoleucylglutamylthreonyl)-N^1-carboxymethylhydrazinocarbonyl)oxirane] | 47730 ± 420 M⁻¹ s⁻¹ | 4780 M⁻¹ s⁻¹ | – | –
CCCCC(N)C(=O)NN(CCc1ccccc1)C(=O)C1OC1C(=O)OCC.O=C(O)C(F)(F)F (stereo not drawn) [Nle-AHph-trans-EP-COOEt.TFA, trans-3-(N^2-Norleucyl)-N^1-phenylethylhydrazinocarbonyl)oxirane-2-carboxylic Acid Ethyl Ester Trifluoroacetate Salt] | – | – | 8.2 M⁻¹ s⁻¹ | –
trans-3-(N-(N-tert-Butoxycarbonylnorvalyl)-N^1-phenylethylhydrazinocarbonyl)oxirane-2-carboxylic Acid Ethyl Ester [Boc-Nva-AHph-trans-EP-COOEt] | – | – | 0.5 M⁻¹ s⁻¹ | kobs/[I] papain (papain): 1.4 M⁻¹ s⁻¹; kobs/[I] cathepsin B (cathepsin B): 2.7 M⁻¹ s⁻¹
CC(C)[C@H](NC(=O)CCc1ccccc1)C(=O)N[C@@H](C)C(=O)NN(CC(=O)O)C(=O)[C@H]1O[C@@H]1C(=O)N(C)Cc1ccccc1 [11-17, (2S,3S)-2-(N-Methyl-N-benzylcarbamoyl)-3-(N^2-(3-phenylpropanoylvalylalanyl)-N^1-carboxymethylhydrazinocarbonyl)oxirane] | 136 M⁻¹ s⁻¹ | 1950 ± 150 M⁻¹ s⁻¹ | – | –
